Experimental data reported in PMC7112232, “Computational design of substrate selective inhibition” (PLoS Computational Biology, 2020).

Experiments:
[1] = molecular target: T1, Prolyl Oligopeptidase (POP) (Homo sapiens, UniProt P48147); experiment: RP-HPLC cleavage assay with purified rhPOP (TRH as substrate); Km/Vmax and Dixon plots; format: biochemical
T1 construct: gene PREP; recombinant human POP (rhPOP), GST moiety removed
T1 sequence (P48147 1-710): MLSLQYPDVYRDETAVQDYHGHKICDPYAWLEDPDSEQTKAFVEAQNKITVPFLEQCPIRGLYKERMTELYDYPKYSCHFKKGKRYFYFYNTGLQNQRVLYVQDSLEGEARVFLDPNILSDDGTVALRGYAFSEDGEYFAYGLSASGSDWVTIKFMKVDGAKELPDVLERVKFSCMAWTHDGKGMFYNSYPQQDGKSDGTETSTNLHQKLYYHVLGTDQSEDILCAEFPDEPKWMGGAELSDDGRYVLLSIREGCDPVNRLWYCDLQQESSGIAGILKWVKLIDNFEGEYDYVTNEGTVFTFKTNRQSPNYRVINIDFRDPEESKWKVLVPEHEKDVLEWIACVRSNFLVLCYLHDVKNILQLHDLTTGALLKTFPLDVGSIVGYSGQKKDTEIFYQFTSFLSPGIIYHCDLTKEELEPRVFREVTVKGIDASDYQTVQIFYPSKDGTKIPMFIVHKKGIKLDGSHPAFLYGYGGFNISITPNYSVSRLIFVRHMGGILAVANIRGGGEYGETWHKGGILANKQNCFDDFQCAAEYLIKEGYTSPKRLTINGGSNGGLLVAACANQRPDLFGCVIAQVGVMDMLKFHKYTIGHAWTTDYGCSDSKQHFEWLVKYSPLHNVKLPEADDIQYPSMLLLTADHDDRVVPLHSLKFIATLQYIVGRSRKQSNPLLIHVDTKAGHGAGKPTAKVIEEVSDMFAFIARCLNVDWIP

[2] = molecular target: T1, Prolyl Oligopeptidase (POP); experiment: RP-HPLC cleavage assay with purified rhPOP (TRH as substrate); Dixon plots; format: biochemical

| SMILES | IC50 [1] [µM] | IC50 [2] [µM] |
| --- | --- | --- |
| CCOC(=O)CN1C(=O)NC(CC)(c2ccccc2)C1=O (centres unmarked) [T5450157] | 130 |  |
| O=C(CCC(=O)N1CCCC1)c1ccccc1 [T6816369] |  | 32.1 |
